{"source": "patent US4920117A", "about": "“4,5,5a,6-tetrahydro-3H-isoxazolo(5,4,3-kl)acridines, pharmaceutical compositions and use” (Hoechst-Roussel Pharmaceuticals Inc., priority 1989, dated 1990)", "key": {"acetylcholinesterase": {"target": "acetylcholinesterase (Homo sapiens, UniProt P22303)", "sequence (P22303 32-614)": "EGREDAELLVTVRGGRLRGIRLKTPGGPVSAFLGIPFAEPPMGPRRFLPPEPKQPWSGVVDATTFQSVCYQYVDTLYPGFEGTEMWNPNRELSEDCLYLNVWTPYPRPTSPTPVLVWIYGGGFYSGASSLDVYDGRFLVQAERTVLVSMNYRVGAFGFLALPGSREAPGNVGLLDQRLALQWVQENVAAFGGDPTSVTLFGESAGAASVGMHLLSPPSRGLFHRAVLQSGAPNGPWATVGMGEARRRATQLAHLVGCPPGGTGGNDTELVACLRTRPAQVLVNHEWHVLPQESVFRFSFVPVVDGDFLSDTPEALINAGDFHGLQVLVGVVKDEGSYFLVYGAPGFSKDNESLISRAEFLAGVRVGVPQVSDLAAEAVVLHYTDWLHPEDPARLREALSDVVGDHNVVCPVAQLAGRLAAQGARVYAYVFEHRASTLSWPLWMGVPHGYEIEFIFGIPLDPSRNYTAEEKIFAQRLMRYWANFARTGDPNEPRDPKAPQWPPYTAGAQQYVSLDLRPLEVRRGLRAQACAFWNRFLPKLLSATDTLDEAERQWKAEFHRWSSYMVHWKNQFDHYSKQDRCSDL", "experiment": "Cholinesterase inhibition assay (photometric method of Ellman et al.)", "assay_type": "biochemical", "conditions": "read-out: Cholinesterase Inhibition IC50 (molar conc.)"}, "[1]": {"tested_on": "scopolamine induced memory deficit in mice", "experiment": "Dark Avoidance Assay (reversal of scopolamine induced memory deficit)", "assay_type": "in vivo", "conditions": "retest after 24 hours", "description": "This utility can also be ascertained by determining the ability of these compounds to restore cholinergically deficient memory in the Dark Avoidance Assay. In this assay mice are tested for their ability to remember an unpleasant stimulus for a period of 24 hours. A mouse is placed in a chamber that contains a dark compartment; a strong incadescent light drives it to the dark compartment, where an electric shock is administered through metal plates on the floor. The animal is removed from the testing apparatus and tested again, 24 hours later, for the ability to remember the electric shock.\nIf scopolamine, an anticholinergic that is known to cause memory impairment, is administered before an animal's initial exposure to the test chamber, the animal re-enters the dark compartment shortly after being placed in the test chamber 24 hours later. This effect of scopolamine is blocked by an active test compound, resulting in a greater interval before re-entry into the dark compartment.\nThe results for an active compound are expressed as the percent of a group of animals in which the effect of scopolamine is blocked, as manifested by an increased interval between being placed in the test chamber and re-entering the dark compartment."}, "[2]": {"tested_on": "2-phenyl-1,4-benzoquinone-induced writhing in mice", "experiment": "2-phenyl-1,4-benzoquinone-induced writhing test in mice (analgesia)", "assay_type": "in vivo", "from_the_text": "The compounds of Formula I of the present invention are useful as analgesic agents due to their ability to alleviate pain in mammals. […] Exptl. Biol. Med., 95, 729 (1957)]."}}, "note": "pIC50: −log10 of the molar value.", "data": [{"smiles": "c1ccc2c(c1)NC1CCCc3onc-2c31", "note": "(stereo not shown) [4,5,5a,6-Tetrahydro-3H-isoxazolo[5,4,3-kl]acridine]", "values": [{"measurement": "pIC50", "setting": "acetylcholinesterase", "result": 4.89}]}, {"smiles": "c1ccc2c(c1)nc1c3c(onc32)CCC1", "note": "[4,5-Dihydro-3H-isoxazolo[5,4,3-kl]acridine]", "values": [{"measurement": "% of animals with scopolamine induced memory deficit reversal", "setting": "[1]; 0.63 mg/kg body weight", "result": 20, "unit": "%"}, {"measurement": "pIC50", "setting": "acetylcholinesterase", "result": 5.41}]}, {"smiles": "C=CCN1c2ccccc2-c2noc3c2C1CCC3", "note": "(stereo not shown) [6-(2-Propenyl)-4,5,5a,6-tetrahydro-3H-isoxazolo[5,4,3-kl]acridine]", "values": [{"measurement": "% of animals with scopolamine induced memory deficit reversal", "setting": "[1]; 1.25 mg/kg body weight", "result": 27, "unit": "%"}]}, {"smiles": "CCNC(=O)N1c2ccccc2-c2noc3c2C1CCC3", "note": "(stereo not shown) [6-Ethylaminocarbonyl-4,5,5a,6-tetrahydro-3H-isoxazolo[5,4,3-kl]acridine]", "values": [{"measurement": "Analgesic PQW % Inhibition of Writhing at 20 mg/kg., S.C.", "setting": "[2]", "result": 44, "unit": "%"}]}, {"smiles": "C#CCNC(=O)N1c2ccccc2-c2noc3c2C1CCC3", "note": "(stereo not shown) [N-(2-Propynyl)-4,5,5a,6-tetrahydro-3H-isoxazolo-[5,4,3-kl]acridine-6-carboxamide]", "values": [{"measurement": "Analgesic PQW % Inhibition of Writhing at 20 mg/kg., S.C.", "setting": "[2]", "result": 29, "unit": "%"}]}, {"smiles": "O=C(NCCN1CCOCC1)N1c2ccccc2-c2noc3c2C1CCC3", "note": "(stereo not shown) [N-[2-(4-Morpholinyl)ethyl]-4,5,5a,6-tetrahydro-3H-isoxazolo[5,4,3-kl]acridine-6-carboxamide]", "values": [{"measurement": "Analgesic PQW % Inhibition of Writhing at 20 mg/kg., S.C.", "setting": "[2]", "result": 52, "unit": "%"}]}, {"smiles": "O=C(NCC#CCN1CCCC1)N1c2ccccc2-c2noc3c2C1CCC3", "note": "(stereo not shown) [N-[4-(1-Pyrrolidinyl)-2-butyn-1-yl]-4,5,5a,6-tetrahydro-3H-isoxazolo[5,4,3-kl]acridine-6-carboxamide]", "values": [{"measurement": "Analgesic PQW % Inhibition of Writhing at 20 mg/kg., S.C.", "setting": "[2]", "result": 33, "unit": "%"}]}, {"smiles": "CNC(=O)Oc1ccc2c(c1)[C@]1(C)CCN(C)[C@@H]1N2C", "note": "[Physostigmine, reference compound]", "values": [{"measurement": "% of animals with scopolamine induced memory deficit reversal", "setting": "[1]; 0.31 mg/kg body weight, reference", "result": 20, "unit": "%"}]}, {"smiles": "CCC(=O)O[C@](Cc1ccccc1)(c1ccccc1)[C@H](C)CN(C)C", "note": "[Propoxyphene, reference compound]", "values": [{"measurement": "Analgesic PQW % Inhibition of Writhing", "setting": "[2]; 3.9 mg/kg, s.c., reference compound", "result": 50, "unit": "%"}]}]}
